Test results: patent US11401278B2, “Macrocyclic indole derivatives” (The Broad Institute, Inc., priority 2017, dated 2022)
Where a name gives a salt, the structure may show the parent alone. Read-outs that look alike come from different tables or passages of the source. One block for each molecule: values may come before it.

What was measured:
[1] = amine bond
[2] = molecular target: MCL-1 (Homo sapiens (Human), UniProt Q07820, K194A/K197A/R201A); experiment: Protein-protein interaction assay MCL-1/Noxa BH3 peptide (MCL-1 assay, TR-FRET); format: binding; details: MBP-MCL-1 / Noxa BH3 peptide, median
Protocol: Protein-Protein Interaction Assay: MCL-1/Noxa BH3 Peptide (MCL-1 Assay)
The dose-dependent inhibition by the compounds described in this invention of the interaction between MCL-1 and the BH3 domain of Noxa (both human) was determined using a steady state binding competition assay with time-resolved fluorescence energy transfer (TR-FRET) readout. For that purpose MCL-1 (amino acids 173-329, N-terminal fused to Maltose Binding Protein (MBP) SEQ ID 1) and a synthetic Noxa BH3-derived peptide of sequence Biotin-PEG2-PEG2-PAELEVE-Nva-ATQLRRFGDKLNFRQKLL-amide (SEQ ID 2) served as protein receptor and tracer ligand respectively. The MBP-MCL-1 was purchased from Beryllium (Bedford, Mass., USA). The expression and purification of this protein construct has been described elsewhere (DOI:10.1371/journal.pone.0125010). The Noxa BH3-derived peptide can be obtained from e.g. Biosyntan (Berlin, Germany).
In the assay 11 different concentrations of each compound (0.1 nM, 0.33 nM, 1.1 nM, 3.8 nM, 13 nM, 44 nM, 0.15 μM, 0.51 μM, 1.7 μM, 5.9 μM and 20 μM) were typically measured as duplicates in the same microtiter plate. For that, 100-fold concentrated DMSO solutions were prepared by serial dilutions (1:3.4) of a 2 mM stock solution in a clear, 384-well microtiter plate (Greiner Bio-One, Frickenhausen, Germany). From there, 50 nl were transferred in a dark test plate (Greiner Bio-One, Frickenhausen, Germany). The assay was initiated by addition of 2 μl of a 2.5-fold concentrated MBP-MCL-1 solution (usually for a 1 nM end concentration in 5 μl reaction volume) in aqueous assay buffer [50 mM Tris/HCl pH 7, 100 mM sodium chloride (NaCl), 50 mM potassium fluoride (KF), 0.005% Tween-20, 2 mM DTT, 0.1% bovine gamma globulin (BGG)] to the compounds in the assay plate. This was followed by a 10-minute incubation step at 22° C. for pre-equilibration of the putative complex between MBP-MCL-1 and the compounds. After that, 3 μl of a 1.67-fold concentrated solution (in assay buffer) consisting of Noxa BH3-derived peptide (1 nM end concentration) and TR-FRET detection reagents [1.67 nM anti-MBP-Eu cryptate and 1.67 nM streptavidin-XL665 (both from Cisbio Bioassays, Codolet, France)], were added.
The mixture was incubated in the dark for one hour at 22° C. and then overnight at 4° C. The formation of MCL-1/Noxa complexes was determined by measuring the resonance energy transfer of the anti-MBP-Eu-cryptate antibody to the streptavidin-XL665 present in the reaction. For that purpose, the fluorescence emission at 620 nm and 665 nm after excitation at 330-350 nm was measured in a TR-FRET measuring instrument, for instance a Rubystar or a Pherastar (both from BMG Lab Technologies, Offenburg, Germany) or a Viewlux (Perkin-Elmer). The ratio of the emission at 665 nm and at 622 nm was used as indicator of the amount of MCL-1/NOXA complexes present.
The resulting data (ratio) were normalized, taking 0% inhibition as the mean value of control measurements (usually 32 data points) where all reagents were included. In this case 50 nl DMSO were used instead of compounds. A 100% inhibition corresponded to the mean value of control measurements (usually 32 data points) where all reagents except MCL-1 were included. IC50 values were determined by regression analysis based on a 4 parameter equation (minimum, maximum, IC50, Hill; Y=Max+(Min−Max)/(1+(X/IC50)^HiII) using the Screener Software (Genedata).

[3] = system: SUDHL5; experiment: Induction of caspase-3/7 activity (Assay 4), SUDHL5; format: cell-based; details: caspase-3/7 induction, 3 hours, median
Protocol: (§1) Cellular Assays Assay 4 Induction of Caspase-3/7 Activity Upon Treatment of Cells with Selected Compounds
(§2) The BH3-domain of MCL-1 sequesters pro-apoptotic proteins, thereby inhibiting apoptosis. In contrast, MCL-1 inhibitors are expected to antagonize this effect leading to an increase in apoptosis, which can be determined by measuring the activity of caspase-3/7.
(§3) The activity of caspase-3/7 was determined in DLBCL (Diffuse large B-cell lymphoma) cell lines (SUDHL5 and SUDHL10) upon treatment with different compounds, using the Caspase-Glo® 3/7 reagent from Promega (G8092).
(§4) Rim wells were excluded. The cells were incubated for 3 hours in a humidified incubator at 37° C.
(§5) For the evaluation of the results, the background measured with “medium-only” was subtracted from all other values. […] The Bella DRC Master Sheet was used to calculate EC50s, with fixed C0=1 and CI=plateau/max induction for the reference compound.

[4] = system: SUDHL10; experiment: Induction of caspase-3/7 activity (Assay 4), SUDHL10; format: cell-based; details: caspase-3/7 induction, 3 hours, median
Protocol: as §1, §2, §3, §4, §5

[5] = system: SUDHL5; experiment: Antiproliferation assay (Assay 7), SUDHL5; format: cell-based; details: CellTiter-Glo, 72 hours, median, read-out: Antiproli SUDHL5 [M] (median) IC50
Protocol: (§6) Assessment of the Anti-Proliferative Effect of Compounds in Different Cell Lines
(§7) The impact of compounds on the proliferation of different cell lines was assessed using the CellTiter-Glo® Luminescent Cell Viability reagent from Promega (G7573).
(§8) In parallel, cells were plated in a reference (day 0) plate for time zero determination.
(§9) Rim wells were excluded. The cells were incubated for 72 hours in a humidified incubator at 37° C. The day 0 plate was measured by adding 30 μL/well of CTG solution (CellTiter-Glo® Luminescent Cell Viability reagent, Promega G7573) to time zero wells in the reference plate followed by a 10 minutes incubation and luminescence reading at 0.1 ms. using the PHERAstar FS microplate reader (BMG Labtech).
(§10) After 72 hours incubation, the treated plates were measured in the same way as the day 0 plate mentioned above.

[6] = system: AMO-1; experiment: Antiproliferation assay (Assay 7), AMO-1; format: cell-based; details: CellTiter-Glo, 72 hours, several values per example, read-out: Antiproli AMO-1 [M] IC50
Protocol: as §6, §7, §8, §9, §10

[7] = system: HMC-1-8; experiment: Antiproliferation assay (Assay 7), HMC-1-8; format: cell-based; details: CellTiter-Glo, 72 hours, several values per example, read-out: Antiproli HMC-1-8 [M] IC50
Protocol: as §6, §7, §8, §9, §10

[8] = system: SUDHL5; experiment: Induction of cytotoxicity (Assay 6), SUDHL5; details: read-out: Cytotox SUDHL5 [M] (median) IC50, CellTiter-Glo, 5 hours, SUDHL5
[9] = system: SUDHL10; experiment: Induction of cytotoxicity (Assay 6), SUDHL10; details: read-out: Cytotox SUDHL10 [M] (median) IC50, CellTiter-Glo, 5 hours, SUDHL10
Protocol: Assay 6 Induction of Cytotoxicity Upon Treatment of Cells with Selected Compounds
Therefore, cytotoxicity assays were run in parallel in SUDHL5 and SUDHL10 cells.
The different cell lines were plated in culture medium (RPMI 1640 [GIBCO #22400-089] supplemented with 10% Fetal Bovine Serum) at a density of 3,300 cells in 30 μl/well in a sterile, solid black, flat bottom, polystyrene, TC-treated 384-well microplate (Corning #3571) using Multidrop Combi Reagent Dispenser. As a control, medium without cells was also added to the plate. Cells were incubated in a humidified incubator at 37° C. overnight. On the next day, the cells were treated with compounds (stock solution, 10 mM in DMSO) using the HP D300 Digital Dispenser in a concentration range of 3.3×10e-5 M (33 μM) to 5×10e-9 M (5 nM) in a single-dot curve with at least 16 dilutions and a DMSO concentration of 0.33%. Rim wells were excluded. The cells were incubated for 5 hours in a humidified incubator at 37° C. After this incubation, 30 μl of CellTiter-Glo® Luminescent Cell Viability reagent (Promega, G7573) was added to each well using the Multidrop Combi Reagent Dispenser, followed by 15 minutes incubation on a shaker at room temperature. Finally, luminescence was read at 0.1 ms, with a gain of 3000 using the PHERAstar FS microplate reader (BMG Labtech).

Chain of MCL-1 (Q07820 whole entry K194A/K197A/R201A, looked up): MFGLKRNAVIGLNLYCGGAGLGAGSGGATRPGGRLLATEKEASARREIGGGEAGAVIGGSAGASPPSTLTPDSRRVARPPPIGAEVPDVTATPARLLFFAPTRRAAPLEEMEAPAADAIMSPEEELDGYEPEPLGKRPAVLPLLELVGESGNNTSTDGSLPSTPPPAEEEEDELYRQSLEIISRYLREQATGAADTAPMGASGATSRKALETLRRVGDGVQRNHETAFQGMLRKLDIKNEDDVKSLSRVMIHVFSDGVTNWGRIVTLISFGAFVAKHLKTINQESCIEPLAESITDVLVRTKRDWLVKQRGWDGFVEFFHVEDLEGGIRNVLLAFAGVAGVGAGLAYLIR

Compound: CCOC(=O)c1c(CCCO[Si](C)(C)C(C)(C)C)c2ccc(Cl)c3c2n1CCCS(=O)(=O)N(C)Cc1nn(C)c(CC)c1-3
ring closure, yield of all isomers ([1]; from CCOC(=O)c1[nH]c2c(-c3c(CN(C)S(=O)(=O)CCCCl)nn(C)c3CC)c(Cl)ccc2c1CCCO[Si](C)(C)C(C)(C)C, Cs2CO3, MeCN, 50.0 mM, 60.0 °C, 18.0 h): 74.6%

Compound: CCOC(=O)c1c(CCCO[Si](C)(C)C(C)(C)C)c2ccc(Cl)c3c2n1CCCS(=O)(=O)N(C1CC1)Cc1nn(C)c(C)c1-3
ring closure, yield of all isomers ([1]; from CCOC(=O)c1[nH]c2c(-c3c(CN(C4CC4)S(=O)(=O)CCCCl)nn(C)c3C)c(Cl)ccc2c1CCCO[Si](C)(C)C(C)(C)C, Cs2CO3, acetonitrile, 50.4 mM, 60.0 °C, 48.0 h): 60%

Compound: CCOC(=O)c1c(CCCO[Si](C)(C)C(C)(C)C)c2ccc(F)c3c2n1CCCS(=O)(=O)N(C)Cc1nn(C)c(C)c1-3
ring closure, yield of all isomers ([1]; from CCOC(=O)c1[nH]c2c(-c3c(CN(C)S(=O)(=O)CCCCl)nn(C)c3C)c(F)ccc2c1CCCO[Si](C)(C)C(C)(C)C, Cs2CO3, NaI, acetonitrile, 87.3 mM, 60.0 °C, 240.0 h): 47.7%

Compound: CCOC(=O)c1c(CCCO[Si](C)(C)C(C)(C)C)c2ccc(F)c3c2n1CCCS(=O)(=O)N(C)Cc1nn(C)c(CC)c1-3
ring closure, yield of all isomers ([1]; from CCOC(=O)c1[nH]c2c(-c3c(CN(C)S(=O)(=O)CCCCl)nn(C)c3CC)c(F)ccc2c1CCCO[Si](C)(C)C(C)(C)C, Cs2CO3, acetonitrile, 50.0 mM, 60.0 °C, 72.0 h): 55.2%

Compound: CCOC(=O)c1c(CCCOc2cccc3cc(F)ccc23)c2ccc(Cl)c3c2n1CCCS(=O)(=O)N(C)C(CCN1CCOCC1)c1nn(C)c(C)c1-3 (stereo not drawn)
ring closure, yield of all isomers ([1]; from CCOC(=O)c1[nH]c2c(-c3c(C(CCN4CCOCC4)N(C)S(=O)(=O)CCCCl)nn(C)c3C)c(Cl)ccc2c1CCCOc1cccc2cc(F)ccc12, cesium carbonate, acetonitrile, 37.4 mM, 60.0 °C, 48.0 h): 82%

Compound: CCOC(=O)c1c(CCCOc2cccc3cc(F)ccc23)c2ccc(Cl)c3c2n1CCCS(=O)(=O)N(C)CCC(N1CCOCC1)c1nn(C)c(C)c1-3 (stereo not drawn)
ring closure, yield of all isomers ([1]; from CCOC(=O)c1[nH]c2c(-c3c(C(CCN(C)S(=O)(=O)CCCCl)N4CCOCC4)nn(C)c3C)c(Cl)ccc2c1CCCOc1cccc2cc(F)ccc12, Cs2CO3, acetonitrile, 40.7 mM, 60.0 °C, 48.0 h): 63.7%

Compound: CCOC(=O)c1c(CCCOc2cccc3cc(F)ccc23)c2ccc(Cl)c3c2n1CCCS(=O)(=O)N(C1CC1)Cc1nn(C)c(CC)c1-3
ring closure, yield of all isomers ([1]; from CCOC(=O)c1[nH]c2c(-c3c(CN(C4CC4)S(=O)(=O)CCCCl)nn(C)c3CC)c(Cl)ccc2c1CCCOc1cccc2cc(F)ccc12, cesium carbonate, acetonitrile, 47.2 mM, 60.0 °C, 16.0 h): 91%

Compound: CCOC(=O)c1c(CCCOc2cccc3cc(F)ccc23)c2ccc(Cl)c3c2n1CCCS(=O)(=O)N(CC)Cc1nn(C)c(CC)c1-3
ring closure, yield of all isomers ([1]; from CCOC(=O)c1[nH]c2c(-c3c(CN(CC)S(=O)(=O)CCCCl)nn(C)c3CC)c(Cl)ccc2c1CCCOc1cccc2cc(F)ccc12, cesium carbonate, acetonitrile, 50.9 mM, 60.0 °C, 48.0 h): 73%

Compound: CCOC(=O)c1c(CCCOc2cccc3cc(F)ccc23)c2ccc(Cl)c3c2n1CCCS(=O)(=O)N(CCN1CCOCC1)Cc1nn(C)c(CC)c1-3
ring closure, yield of all isomers ([1]; from CCOC(=O)c1[nH]c2c(-c3c(CN(CCN4CCOCC4)S(=O)(=O)CCCCl)nn(C)c3CC)c(Cl)ccc2c1CCCOc1cccc2cc(F)ccc12, cesium carbonate, acetonitrile, 50.3 mM, 40.0 °C, 48.0 h): 90.3%

Compound: CCOC(=O)c1c(CCCOc2cccc3cc(F)ccc23)c2ccc(Cl)c3c2n1CCCS(=O)(=O)N(Cc1ccc(OC)cc1OC)Cc1nn(C)c(C)c1-3
ring closure, yield of all isomers ([1]; from CCOC(=O)c1[nH]c2c(-c3c(CN(Cc4ccc(OC)cc4OC)S(=O)(=O)CCCCl)nn(C)c3C)c(Cl)ccc2c1CCCOc1cccc2cc(F)ccc12, cesium carbonate, acetonitrile, 51.5 mM, 60.0 °C, 16.0 h): 48%

Compound: CCOC(=O)c1c(CCCOc2cccc3ccccc23)c2cccc3c2n1CCCS(=O)(=O)N(C)C(CCN1CCOCC1)c1nn(C)c(C)c1-3 (stereo not drawn)
ring closure, yield of all isomers ([1]; from CCOC(=O)c1[nH]c2c(-c3c(C(CCN4CCOCC4)N(C)S(=O)(=O)CCCCl)nn(C)c3C)cccc2c1CCCOc1cccc2ccccc12, Cs2CO3, acetonitrile, 49.6 mM, 60.0 °C, 48.0 h): 99.7%

Compound: CCOC(=O)c1c(CCCOc2cccc3ccccc23)c2cccc3c2n1CCCS(=O)(=O)N(CCCN1CCCC1=O)Cc1nn(C)c(CC)c1-3
ring closure, yield of all isomers ([1]; from CCOC(=O)c1[nH]c2c(-c3c(CN(CCCN4CCCC4=O)S(=O)(=O)CCCCl)nn(C)c3CC)cccc2c1CCCOc1cccc2ccccc12, NaH, DMF, 25.1 mM, 60.0 °C, 22.0 h): 80.5%

Compound: CCOC(=O)c1c(CCCOc2cccc3ccccc23)c2cccc3c2n1CCCS(=O)(=O)N(CCN1CCCCC1)Cc1nn(C)c(CC)c1-3
ring closure, yield of all isomers ([1]; from CCOC(=O)c1[nH]c2c(-c3c(CN(CCN4CCCCC4)S(=O)(=O)CCCCl)nn(C)c3CC)cccc2c1CCCOc1cccc2ccccc12, NaH, DMF, 25.0 mM, 60.0 °C, 21.0 h): 69%

IC50 [2]: 0.016 µM
EC50 [3]: 8.9 µM
EC50 [4]: 13 µM
IC50 [5]: 1.1e-05 M
Compound: CCc1c2c(nn1C)CN(C1CC1)S(=O)(=O)CCCn1c(C(=O)O)c(CCCOc3cccc4cc(F)ccc34)c3ccc(Cl)c-2c31 (single isomer, unassigned; enantiomer 2) [Example 55, (+)-4-chloro-14-cyclopropyl-3-ethyl-7-{3-[(6-fluoronaphthalen-1-yl)oxy]propyl}-2-methyl-13,13-dioxo-10,11,12,13,14,15-hexahydro-2H-13lambda^6-pyrazolo[3′,4′:4,5][1,2,8]thiadiazacycloundecino[6,7,8-hi]indole-8-carboxylic acid N-ethylethanamine Salt (Enantiomer 2)]
IC50 [6]: > 3.3e-05 M
IC50 [7]: 2.1e-05 M
IC50 [8]: 8.2e-06 M
IC50 [9]: 1.3e-05 M
